Where two headings read alike, the source gives them in different places.
Experiments:
[1] = molecular target: T1, OAT3 (Homo sapiens, UniProt Q8TCC7); assay: Transporter inhibition assay, OAT3
T1 sequence (Q8TCC7 1-542): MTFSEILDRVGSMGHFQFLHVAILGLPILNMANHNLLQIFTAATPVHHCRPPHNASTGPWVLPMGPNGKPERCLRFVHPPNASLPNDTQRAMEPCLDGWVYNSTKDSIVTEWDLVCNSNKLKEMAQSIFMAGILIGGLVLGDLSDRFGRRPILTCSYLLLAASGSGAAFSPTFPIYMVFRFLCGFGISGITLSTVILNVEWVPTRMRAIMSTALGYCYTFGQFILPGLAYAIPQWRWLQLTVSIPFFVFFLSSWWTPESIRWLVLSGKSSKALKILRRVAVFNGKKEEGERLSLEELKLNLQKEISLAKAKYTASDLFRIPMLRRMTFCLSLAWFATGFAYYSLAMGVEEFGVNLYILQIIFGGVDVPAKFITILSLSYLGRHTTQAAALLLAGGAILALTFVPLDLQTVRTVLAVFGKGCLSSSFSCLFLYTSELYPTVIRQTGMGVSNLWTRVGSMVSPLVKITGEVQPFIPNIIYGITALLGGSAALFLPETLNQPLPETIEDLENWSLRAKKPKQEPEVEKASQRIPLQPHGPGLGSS

[2] = molecular target: T2, OCT2 (Homo sapiens, UniProt O15244); assay: Transporter inhibition assay, OCT2
T2 sequence (O15244 1-555): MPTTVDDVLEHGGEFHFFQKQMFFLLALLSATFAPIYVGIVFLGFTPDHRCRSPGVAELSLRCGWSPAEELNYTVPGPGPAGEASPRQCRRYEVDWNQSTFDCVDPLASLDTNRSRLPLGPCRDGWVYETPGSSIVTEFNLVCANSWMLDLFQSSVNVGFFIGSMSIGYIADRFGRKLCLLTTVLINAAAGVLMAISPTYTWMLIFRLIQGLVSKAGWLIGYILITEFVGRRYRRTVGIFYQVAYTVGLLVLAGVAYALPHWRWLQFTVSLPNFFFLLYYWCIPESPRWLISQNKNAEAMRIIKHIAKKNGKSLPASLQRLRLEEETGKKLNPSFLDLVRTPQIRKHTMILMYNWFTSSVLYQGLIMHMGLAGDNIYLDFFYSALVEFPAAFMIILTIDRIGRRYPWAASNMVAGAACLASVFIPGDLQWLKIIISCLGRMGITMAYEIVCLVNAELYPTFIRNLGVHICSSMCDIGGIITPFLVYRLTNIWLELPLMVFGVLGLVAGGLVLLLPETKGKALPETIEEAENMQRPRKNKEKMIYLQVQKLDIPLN

[3] = molecular target: MRP3 (Homo sapiens, UniProt O15438); assay: Transporter inhibition assay, MRP3
[4] = molecular target: T3, OATP1B1 (Homo sapiens, UniProt Q9Y6L6); assay: Transporter inhibition assay, OATP1B1; details: for inhibition at 100 μM: cell line (HEK293 or MDCKII) stably expressing OATP1B1
T3 sequence (Q9Y6L6 1-691): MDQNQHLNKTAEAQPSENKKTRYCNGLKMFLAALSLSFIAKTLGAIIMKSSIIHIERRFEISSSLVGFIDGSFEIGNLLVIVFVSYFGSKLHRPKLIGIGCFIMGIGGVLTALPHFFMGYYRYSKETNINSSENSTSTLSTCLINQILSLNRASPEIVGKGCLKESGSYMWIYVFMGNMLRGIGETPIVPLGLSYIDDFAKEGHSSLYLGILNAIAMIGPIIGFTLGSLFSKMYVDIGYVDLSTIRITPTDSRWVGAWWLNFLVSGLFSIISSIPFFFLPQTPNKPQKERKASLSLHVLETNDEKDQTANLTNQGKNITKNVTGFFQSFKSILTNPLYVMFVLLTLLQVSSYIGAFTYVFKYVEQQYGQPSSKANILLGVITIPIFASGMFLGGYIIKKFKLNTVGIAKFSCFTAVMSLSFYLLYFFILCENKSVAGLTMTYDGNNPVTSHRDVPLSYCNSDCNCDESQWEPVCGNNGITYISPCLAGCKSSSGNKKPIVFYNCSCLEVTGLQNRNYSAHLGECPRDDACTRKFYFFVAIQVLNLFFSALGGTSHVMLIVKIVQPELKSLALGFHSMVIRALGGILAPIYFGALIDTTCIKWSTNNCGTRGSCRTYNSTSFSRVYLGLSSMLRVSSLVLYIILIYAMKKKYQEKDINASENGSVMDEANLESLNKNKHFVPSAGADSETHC

[5] = molecular target: T4, OATP2B1 (Homo sapiens, UniProt O94956); assay: Transporter inhibition assay, OATP2B1; details: for inhibition at 100 μM: cell line (HEK293 or MDCKII) stably expressing OATP2B1
T4 sequence (O94956 1-709): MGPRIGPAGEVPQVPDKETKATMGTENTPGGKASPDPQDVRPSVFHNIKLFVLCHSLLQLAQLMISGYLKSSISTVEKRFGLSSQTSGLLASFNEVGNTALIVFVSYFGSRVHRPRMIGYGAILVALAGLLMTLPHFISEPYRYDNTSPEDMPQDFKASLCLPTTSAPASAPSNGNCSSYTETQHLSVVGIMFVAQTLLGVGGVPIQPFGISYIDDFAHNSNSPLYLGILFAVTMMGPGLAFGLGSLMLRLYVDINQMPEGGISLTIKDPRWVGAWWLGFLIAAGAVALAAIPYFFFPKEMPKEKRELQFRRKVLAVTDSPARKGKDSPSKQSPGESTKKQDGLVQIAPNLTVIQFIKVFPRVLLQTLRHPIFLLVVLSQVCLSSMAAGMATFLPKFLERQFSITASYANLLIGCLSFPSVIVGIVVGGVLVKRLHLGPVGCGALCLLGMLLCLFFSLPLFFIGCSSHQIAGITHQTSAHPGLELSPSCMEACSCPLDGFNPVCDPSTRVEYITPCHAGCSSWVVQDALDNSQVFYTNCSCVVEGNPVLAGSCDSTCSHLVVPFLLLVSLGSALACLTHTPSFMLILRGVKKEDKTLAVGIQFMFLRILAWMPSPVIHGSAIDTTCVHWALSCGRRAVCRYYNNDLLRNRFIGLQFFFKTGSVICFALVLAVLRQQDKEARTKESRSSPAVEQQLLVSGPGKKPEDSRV

Sequence of MRP3 (O15438 whole entry): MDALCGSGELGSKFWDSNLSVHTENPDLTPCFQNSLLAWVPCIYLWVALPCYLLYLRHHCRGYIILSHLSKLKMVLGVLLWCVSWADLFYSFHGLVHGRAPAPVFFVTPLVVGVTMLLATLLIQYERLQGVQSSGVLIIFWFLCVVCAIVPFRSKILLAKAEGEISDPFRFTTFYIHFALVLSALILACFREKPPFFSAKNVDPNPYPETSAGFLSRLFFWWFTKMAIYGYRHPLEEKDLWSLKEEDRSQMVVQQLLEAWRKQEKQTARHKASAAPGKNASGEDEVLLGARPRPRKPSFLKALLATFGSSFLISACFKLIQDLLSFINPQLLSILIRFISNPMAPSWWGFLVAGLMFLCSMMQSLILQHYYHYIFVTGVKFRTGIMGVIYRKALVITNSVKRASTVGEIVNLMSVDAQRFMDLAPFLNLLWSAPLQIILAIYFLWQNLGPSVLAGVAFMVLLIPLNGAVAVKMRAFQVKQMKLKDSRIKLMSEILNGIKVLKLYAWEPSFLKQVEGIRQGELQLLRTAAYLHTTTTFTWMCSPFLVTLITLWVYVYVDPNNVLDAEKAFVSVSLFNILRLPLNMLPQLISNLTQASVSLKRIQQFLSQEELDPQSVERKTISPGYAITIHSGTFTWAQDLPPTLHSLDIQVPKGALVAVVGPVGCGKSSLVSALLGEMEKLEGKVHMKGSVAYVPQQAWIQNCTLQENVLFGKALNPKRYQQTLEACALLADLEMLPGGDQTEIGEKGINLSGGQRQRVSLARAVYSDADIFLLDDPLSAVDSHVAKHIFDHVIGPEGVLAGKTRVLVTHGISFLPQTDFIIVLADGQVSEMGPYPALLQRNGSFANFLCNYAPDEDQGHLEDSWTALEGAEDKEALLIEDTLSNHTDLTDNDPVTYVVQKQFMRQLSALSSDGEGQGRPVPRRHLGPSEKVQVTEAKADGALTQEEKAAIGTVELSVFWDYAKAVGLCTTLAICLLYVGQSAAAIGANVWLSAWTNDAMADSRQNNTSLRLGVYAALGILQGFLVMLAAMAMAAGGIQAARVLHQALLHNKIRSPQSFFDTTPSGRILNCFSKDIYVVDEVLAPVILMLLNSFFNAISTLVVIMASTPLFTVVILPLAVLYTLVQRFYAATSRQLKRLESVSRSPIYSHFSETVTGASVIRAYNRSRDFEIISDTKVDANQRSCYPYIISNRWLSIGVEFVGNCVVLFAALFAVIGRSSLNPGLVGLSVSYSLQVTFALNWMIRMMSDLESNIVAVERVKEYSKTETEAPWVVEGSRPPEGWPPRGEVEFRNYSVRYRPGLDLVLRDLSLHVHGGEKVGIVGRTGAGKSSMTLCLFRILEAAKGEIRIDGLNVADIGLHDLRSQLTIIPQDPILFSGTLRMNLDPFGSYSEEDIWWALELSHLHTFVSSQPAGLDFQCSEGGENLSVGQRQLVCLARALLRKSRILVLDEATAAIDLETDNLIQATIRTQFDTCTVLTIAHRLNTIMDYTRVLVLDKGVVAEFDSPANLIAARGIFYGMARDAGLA

IC50 [1] [µM]	SMILES	inhibition at 100 μM ([1]; cell line (HEK293 or MDCKII) stably expressing OAT3) [%]	IC50 [2] [µM]	inhibition at 100 μM [3] [%]	inhibition at 100 μM [4] [%]	inhibition at 100 μM [5] [%]	IC50 ([1]; OAT3, isolated alkaloids, mean [95% CI], three technical replicates) [µM]	IC50 ([2]; OCT2, isolated alkaloids, mean [95% CI], three technical replicates) [µM]	inhibition at the highest concentration tested ([3]; MRP3, alkaloids screened at 10 and 100 μM)	IC50 ([4]; OATP1B1, isolated alkaloids, mean [95% CI], three technical replicates) [µM]	inhibition at the highest concentration tested ([5]; OATP2B1, alkaloids screened at 10 and 100 μM)
	CN1CCc2cc3c(cc2C1O)OCO3 (stereo not drawn) [Hydrastinine, hydrastinine chloride monohydrate]	< 20	95	< 20	< 20	< 20					
	COc1ccc2c(c1OC)C(=O)O[C@@H]2[C@H]1c2cc3c(cc2CCN1C)OCO3 [(−)-β-Hydrastine, (1R,9S)-(−)-β-Hydrastine]						203	90	-- (inhibition not observed)	120	-- (inhibition not observed)
79	COc1ccc2cc3[n+](cc2c1OC)CCc1cc2c(cc1-3)OCO2 [Berberine, berberine chloride]		45	< 20	< 20	< 20					

From paper PMC8058163 (Clinical pharmacology and therapeutics, 2020)
